Measured values as given in PubChem BioAssay (NCI).
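Where inhibition never reached the appropriate level, the endpoint shown equals the highest concentration tested. Otherwise, values were interpolated linearly from a five-concentration, 48-hour dose response in 96-well plates. GI50 is the concentration that inhibits growth by half. TGI denotes the concentration required for complete inhibition of growth.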

What was measured:
Test in all cases: NCI-60 cell line screen, 48 h
IGROV1 ovarian = system: IGROV1 ovarian
NCI-H460 lung = system: NCI-H460 lung
SNB-75 CNS = system: SNB-75 CNS
COLO 205 colon = system: COLO 205 colon
U251 CNS = system: U251 CNS
UACC-257 melanoma = system: UACC-257 melanoma
HOP-62 NSCLC = system: HOP-62 NSCLC
SF-268 CNS = system: SF-268 CNS
EKVX NSCLC = system: EKVX NSCLC
HS 578T breast = system: HS 578T breast
SK-MEL-28 melanoma = system: SK-MEL-28 melanoma
PC-3 prostate = system: PC-3 prostate
HT29 colon = system: HT29 colon
HOP-92 NSCLC = system: HOP-92 NSCLC
SK-MEL-2 melanoma = system: SK-MEL-2 melanoma
HCT-15 colon = system: HCT-15 colon
DU-145 prostate = system: DU-145 prostate
SF-295 CNS = system: SF-295 CNS
UACC-62 melanoma = system: UACC-62 melanoma
M14 melanoma = system: M14 melanoma
SR leukemia = system: SR leukemia
SW-620 colon = system: SW-620 colon
NCI/ADR-RES ovarian = system: NCI/ADR-RES ovarian
CCRF-CEM leukemia = system: CCRF-CEM leukemia
A549 NSCLC = system: A549 NSCLC
786-0 renal = system: 786-0 renal
HCT-116 colon = system: HCT-116 colon
NCI-H23 lung = system: NCI-H23 lung
SK-OV-3 ovarian = system: SK-OV-3 ovarian
OVCAR-8 ovarian = system: OVCAR-8 ovarian
A498 renal = system: A498 renal
MDA-MB-231 breast = system: MDA-MB-231 breast
ACHN renal = system: ACHN renal
BT-549 breast = system: BT-549 breast
OVCAR-5 ovarian = system: OVCAR-5 ovarian
K-562 leukemia = system: K-562 leukemia
HCC-2998 colon = system: HCC-2998 colon
OVCAR-4 ovarian = system: OVCAR-4 ovarian
MALME-3M melanoma = system: MALME-3M melanoma
SK-MEL-5 melanoma = system: SK-MEL-5 melanoma
NCI-H522 lung = system: NCI-H522 lung
SNB-19 CNS = system: SNB-19 CNS
HL-60(TB) leukemia = system: HL-60(TB) leukemia
T-47D breast = system: T-47D breast
KM12 colon = system: KM12 colon
LOX IMVI melanoma = system: LOX IMVI melanoma
NCI-H226 lung = system: NCI-H226 lung
MOLT-4 leukemia = system: MOLT-4 leukemia
UO-31 renal = system: UO-31 renal
TK-10 renal = system: TK-10 renal
CAKI-1 renal = system: CAKI-1 renal
RPMI-8226 leukemia = system: RPMI-8226 leukemia
OVCAR-3 ovarian = system: OVCAR-3 ovarian
RXF 393 renal = system: RXF 393 renal
MDA-MB-435 = system: MDA-MB-435
MCF7 breast = system: MCF7 breast
SN12C renal = system: SN12C renal
SF-539 CNS = system: SF-539 CNS

## CCOC(=O)c1nc2cc(C(F)(F)F)ccc2nc1Nc1ccc(C(=O)OC)s1
IGROV1 ovarian
  TGI: > 100 µM
NCI-H460 lung
  TGI: > 100 µM
SNB-75 CNS
  TGI: > 100 µM
COLO 205 colon
  TGI: 44.5 µM
U251 CNS
  TGI: > 100 µM
UACC-257 melanoma
  TGI: > 100 µM
HOP-62 NSCLC
  TGI: > 100 µM
SF-268 CNS
  TGI: > 100 µM
EKVX NSCLC
  TGI: > 100 µM
HS 578T breast
  TGI: > 100 µM
SK-MEL-28 melanoma
  TGI: > 100 µM
PC-3 prostate
  TGI: > 100 µM
HT29 colon
  TGI: > 100 µM
HOP-92 NSCLC
  TGI: 54 µM
SK-MEL-2 melanoma
  TGI: 43.5 µM
HCT-15 colon
  TGI: > 100 µM
DU-145 prostate
  TGI: > 100 µM
SF-295 CNS
  TGI: > 100 µM
UACC-62 melanoma
  TGI: 66.8 µM
M14 melanoma
  TGI: > 100 µM
SR leukemia
  TGI: 39.6 µM
SW-620 colon
  TGI: > 100 µM
NCI/ADR-RES ovarian
  TGI: > 100 µM
CCRF-CEM leukemia
  TGI: > 100 µM
A549 NSCLC
  TGI: > 100 µM
786-0 renal
  TGI: 84.8 µM
HCT-116 colon
  TGI: > 100 µM
NCI-H23 lung
  TGI: > 100 µM
SK-OV-3 ovarian
  TGI: > 100 µM
OVCAR-8 ovarian
  TGI: > 100 µM
A498 renal
  TGI: 81.6 µM
MDA-MB-231 breast
  TGI: 94.6 µM
ACHN renal
  TGI: > 100 µM
BT-549 breast
  TGI: 74.6 µM
OVCAR-5 ovarian
  TGI: > 100 µM
K-562 leukemia
  TGI: > 100 µM
HCC-2998 colon
  TGI: > 100 µM
OVCAR-4 ovarian
  TGI: > 100 µM
MALME-3M melanoma
  TGI: > 100 µM
SK-MEL-5 melanoma
  TGI: > 100 µM
NCI-H522 lung
  TGI: 90.3 µM
SNB-19 CNS
  TGI: > 100 µM
HL-60(TB) leukemia
  TGI: > 100 µM
T-47D breast
  TGI: > 100 µM
KM12 colon
  TGI: > 100 µM
LOX IMVI melanoma
  TGI: > 100 µM
NCI-H226 lung
  TGI: 87.3 µM
MOLT-4 leukemia
  TGI: > 100 µM
UO-31 renal
  TGI: > 100 µM
TK-10 renal
  TGI: > 100 µM
CAKI-1 renal
  TGI: > 100 µM
RPMI-8226 leukemia
  TGI: > 100 µM
OVCAR-3 ovarian
  TGI: 48.7 µM
RXF 393 renal
  TGI: 50.8 µM
MDA-MB-435
  TGI: > 100 µM

## COc1cccc(Nc2nc3ccccc3c3occc23)c1
IGROV1 ovarian
  GI50: 4.95 µM
  TGI: 25.9 µM
MCF7 breast
  GI50: 43.7 µM
  TGI: > 100 µM
NCI-H460 lung
  GI50: 25.2 µM
  TGI: > 100 µM
COLO 205 colon
  GI50: 9.49 µM
  TGI: 22 µM
U251 CNS
  GI50: 9.68 µM
  TGI: 27.1 µM
UACC-257 melanoma
  GI50: 13.2 µM
  TGI: 26.8 µM
HOP-62 NSCLC
  GI50: 15 µM
  TGI: 39 µM
SF-268 CNS
  GI50: 13.9 µM
  TGI: 34.1 µM
EKVX NSCLC
  GI50: 14.3 µM
  TGI: 36.9 µM
HS 578T breast
  GI50: 9.07 µM
  TGI: 29.7 µM
SK-MEL-28 melanoma
  GI50: 14.5 µM
  TGI: 29.9 µM
PC-3 prostate
  GI50: 13.8 µM
  TGI: 34.3 µM
HOP-92 NSCLC
  GI50: 13 µM
  TGI: 31.1 µM
SK-MEL-2 melanoma
  GI50: 13 µM
  TGI: 30.6 µM
HCT-15 colon
  GI50: 13.2 µM
  TGI: > 100 µM
DU-145 prostate
  GI50: 10.9 µM
  TGI: 22.9 µM
SF-295 CNS
  GI50: 3.92 µM
  TGI: 14.6 µM
UACC-62 melanoma
  GI50: 9.37 µM
  TGI: 24.6 µM
M14 melanoma
  GI50: 13.9 µM
  TGI: 28.6 µM
SR leukemia
  GI50: 21.2 µM
  TGI: 95 µM
SW-620 colon
  GI50: 16.7 µM
  TGI: 34.3 µM
NCI/ADR-RES ovarian
  GI50: 17.9 µM
  TGI: 32.1 µM
A549 NSCLC
  GI50: 6.01 µM
  TGI: 22.4 µM
786-0 renal
  GI50: 10.7 µM
  TGI: 23.7 µM
HCT-116 colon
  GI50: 15.3 µM
  TGI: 34.4 µM
NCI-H23 lung
  GI50: 10.2 µM
  TGI: 22.6 µM
SK-OV-3 ovarian
  GI50: 8.48 µM
  TGI: 22.7 µM
OVCAR-8 ovarian
  GI50: 15.8 µM
  TGI: 42.7 µM
MDA-MB-231 breast
  GI50: 8.53 µM
  TGI: 31.6 µM
ACHN renal
  GI50: 10.8 µM
  TGI: 33.6 µM
BT-549 breast
  GI50: 10.4 µM
  TGI: 23 µM
OVCAR-5 ovarian
  GI50: 14.1 µM
  TGI: 32.9 µM
K-562 leukemia
  GI50: 6.27 µM
  TGI: > 100 µM
HCC-2998 colon
  GI50: 8.9 µM
  TGI: 21.8 µM
OVCAR-4 ovarian
  GI50: 11.2 µM
  TGI: 29.8 µM
SK-MEL-5 melanoma
  GI50: 6.16 µM
  TGI: 20.9 µM
NCI-H522 lung
  GI50: 9.3 µM
  TGI: 27 µM
SNB-19 CNS
  GI50: 12.9 µM
  TGI: 25.8 µM
HL-60(TB) leukemia
  GI50: 45 µM
  TGI: > 100 µM
T-47D breast
  GI50: 4.1 µM
  TGI: 22.8 µM
SN12C renal
  GI50: 12.1 µM
  TGI: 35.1 µM
KM12 colon
  GI50: 3.13 µM
  TGI: 10.7 µM
LOX IMVI melanoma
  GI50: 2.32 µM
  TGI: 8.39 µM
UO-31 renal
  GI50: 6.98 µM
  TGI: 27.6 µM
TK-10 renal
  GI50: 5.79 µM
  TGI: 17.2 µM
CAKI-1 renal
  GI50: 4.19 µM
  TGI: 15.6 µM
RPMI-8226 leukemia
  GI50: 15.9 µM
  TGI: > 100 µM
OVCAR-3 ovarian
  GI50: 9.1 µM
  TGI: 21.2 µM
RXF 393 renal
  GI50: 4.46 µM
  TGI: 19.8 µM
SF-539 CNS
  GI50: 17.3 µM
  TGI: 35.1 µM
MDA-MB-435
  GI50: 10.7 µM
  TGI: 22.6 µM
